Experimental data: patent US6696437B1, “Heterocyclically substituted benzimidazoles, the production and application thereof” (Abbott GmbH & Co. KG, priority 1999, dated 2004)

Legend:
[1] = tested on: poly(ADP-ribose) polymerase or PARP (EC 2.4.2.30); test: Inhibition of the enzyme poly(ADP-ribose) polymerase (ELISA / HTRF assay); type: biochemical, human or bovine
Method: The inhibitory effect of the substituted benzimidazoles I and II can be determined using an enzyme assay disclosed in the literature, with a Ki being determined as gauge of the effect. The benzimidazoles I and II were measured in this way for an inhibitory effect on the enzyme poly(ADP-ribose) polymerase or PARP (EC 2.4.2.30).
Inhibition of the Enzyme poly(ADP-ribose) Polymerase or PARP (EC 2.4.2.30)
A 96-well microtiter plate (FALCON Micro-Test IIIä Flexible Assay Plate, #3912) was coated with histones (SIGMA, H-7755). Histones were for this purpose dissolved in carbonate buffer (0.05 M […]; pH 9.4) in a concentration of 50 μg/ml. The individual wells of the microtiter plate were each incubated with 150 μl of this histone solution at room temperature for at least 2 hours or at 4° C. overnight. The wells are then blocked by adding 150 μl of a 1% strength BSA solution (SIGMA, A-7888) in carbonate buffer at room temperature for 2 hours. This is followed by three washing steps with washing buffer (0.05% […] in 1×PBS; PBS (phosphate buffered saline; Gibco, Order No. 10010): 0.21 g/l KH2PO4, 9 g/l NaCl, 0.726 g/l Na2HPO4.7H2O, pH 7.4). Washing steps were all carried out in a microtiter plate washer (“Columbus” microtiter plate washer, SLT-Labinstruments, Austria).
Required for the enzyme reaction were an enzyme reaction solution and a substrate solution, in each case as a premix. The absolute amount of these solutions depended on the intended number of assay wells.
Composition of the enzyme reaction solution per well:
4 μl of PARP reaction buffer (1 M tris-HCl pH 8.0, 100 mM MgCl2, 10 mM DTT)
20 ng of PARP (human or bovine)
4 μl of activated DNA (1 mg/ml; SIGMA, D-4522)
Composition of the substrate solution per well:
5 μl of PARP reaction buffer (10×)
0.8 μl of NAD solution (10 mM, SIGMA N-1511)
Inhibitors were dissolved in 1× PARP reaction buffer. DMSO, which was occasionally used to dissolve inhibitors in higher concentrations, was no problem up to a final concentration of 2%. For the enzyme reaction, 40μl of the enzyme reaction solution were introduced into each well and incubated with 10 μl of inhibitor solution for 10 minutes. The enzyme reaction was then started by adding 50 μl of substrate solution per well. The reaction was carried out at room temperature for 30 minutes and then stopped by washing three times with washing buffer.
The primary antibodies employed were specific anti-poly(ADP-ribose) antibodies in a dilution of 1:5000. Dilution took place in antibody buffer (1% BSA in PBS; 0.05% Tween20). Incubation time for the primary antibody was one hour at room temperature. […] This was followed by immediate measurement in an ELISA plate reader (EAR340AT “Easy Reader”, SLT-Labinstruments, Austria) (450 nm versus 620 nm).
Various concentrations were used to construct a dose-effect plot to determine the Ki of an inhibitor. […] Arithmetic means are determined using Microsoft© Excel. The IC50 is determined using the Microcal© Origin Software (Vers. 5.0) (“Sigmoidal Fit”). Conversion of the IC50 values calculated in this way into Ki values took place by using “calibration inhibitors”. The “calibration inhibitors” were also measured in each analysis. […]

PARP II = PARP II (Homo sapiens, UniProt Q9UGN5); test: Inhibition of the enzyme PARP II; type: biochemical; conditions: PARP versus PARP II
[2] = S. Cuzzocrea et al., Br. J. Pharmacol. 1997; cited from earlier work
[3] = Determination of the solubility in water; type: physicochemical; conditions: pH 5-6 adjusted with sodium acetate solution
Method: Determination of the Solubility in Water
A compound to be measured is dissolved directly in a fixed volume of water, and the resulting solution is adjusted to pH 5-6 with a sodium acetate solution so that the active ingredient concentration to be tested is reached. If the measured substance is not in the form of a water-soluble salt, it was dissolved in the minimum amount of dimethyl sulfoxide and then diluted with water (final dimethyl sulfoxide concentration≦1%), after which the pH was again adjusted.

Chain of PARP II (Q9UGN5 whole entry): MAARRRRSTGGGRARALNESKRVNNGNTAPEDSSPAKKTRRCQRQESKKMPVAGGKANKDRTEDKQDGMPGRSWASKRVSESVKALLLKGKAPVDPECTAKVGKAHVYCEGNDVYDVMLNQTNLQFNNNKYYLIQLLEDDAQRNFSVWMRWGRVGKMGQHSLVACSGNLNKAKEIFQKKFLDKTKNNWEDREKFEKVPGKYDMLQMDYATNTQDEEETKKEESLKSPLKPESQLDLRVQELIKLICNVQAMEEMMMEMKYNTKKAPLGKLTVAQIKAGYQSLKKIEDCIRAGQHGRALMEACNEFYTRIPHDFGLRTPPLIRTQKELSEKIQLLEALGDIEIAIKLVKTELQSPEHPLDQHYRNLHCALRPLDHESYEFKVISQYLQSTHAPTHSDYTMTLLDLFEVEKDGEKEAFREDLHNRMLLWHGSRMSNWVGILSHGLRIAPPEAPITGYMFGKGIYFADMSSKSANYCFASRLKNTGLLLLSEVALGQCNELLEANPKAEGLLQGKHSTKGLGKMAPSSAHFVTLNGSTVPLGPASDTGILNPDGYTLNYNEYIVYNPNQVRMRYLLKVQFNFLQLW

| Structure (SMILES) | ranking as PARP inhibitor [1] | also measured |
| --- | --- | --- |
| CCCN1CCN(c2ccc(-c3nc4cccc(C(N)=O)c4[nH]3)cn2)CC1 [Example 16, 2-(6-(4-Propylpiperazin-1-yl)pyridin-3-yl)benzimidazole-4-carboxamide] | best PARP inhibitors | – |
| CCCCN1CCN(c2ccc(-c3nc4cccc(C(N)=O)c4[nH]3)cn2)CC1.Cl [Example 37, 2-(2-(4-n-Butylpiperazin-1-yl)pyridin-5-yl)benzimidazole-4-carboxamide×HCl] | best PARP inhibitors | – |
| NC(=O)c1cccc2nc(-c3ccccc3)[nH]c12 [NU 1070, 2-phenylbenzimidazole-4-carboxamide] | – | Ki values for PARP compared with PARP II (selectivity) (PARP II): same order of magnitude |
| CCN(CC)CCN(C)c1ccc(-c2nc3c(C(N)=O)cccc3[nH]2)cn1.Cl.Cl [Example 15, 2-(6-((2-(N,N-Diethylamino)eth-1-yl)methylamino)pyridin-3-yl)benzimidazole-4-carboxamide×2 HCl] | best PARP inhibitors | – |
| CCN(CC)CCN(C)c1cc(-c2nc3c(C(N)=O)cccc3[nH]2)ccn1.CCN(CC)CCN(C)c1cc(-c2nc3c(C(N)=O)cccc3[nH]2)ccn1.O=C(O)/C=C/C(=O)O [Example 25, 2-(2-((2-(N,N-Diethylamino)eth-1-yl)methylamino)pyridin-4-yl)benzimidazole-4-carboxamide×½ Fumaric Acid] | best PARP inhibitors | – |
| NC(=O)c1cccc(N)c1 [3-aminobenzamide] | – | effect in a model of circulatory failure [2]: protective effects |
| CC(C)(C)N1CCN(c2ccc(-c3nc4cccc(C(N)=O)c4[nH]3)cn2)CC1 [Example 36, 2-(2-(4-tert-Butylpiperazin-1-yl)pyridin-5-yl)benzimidazole-4-carboxamide] | best PARP inhibitors | – |
| NC(=O)c1cccc2[nH]c(-c3ccncc3)nc12 [Example 1, 2-Pyridin-4-ylbenzimidazole-4-carboxamide] | – | solubility in water [3]: > 0.5% |
| COc1ccc(-c2nc3cccc(C(N)=O)c3[nH]2)cc1 [NU 1076, reference compound] | – | solubility in water [3]: < 0.01% |
